“Also recorded” adds a separate entry of the source. Where a name gives a salt, the structure may show the parent alone.
Experiments:
[1] = system: intracorporeal pressure (corpus cavernosum penis); test: intracorporeal pressure in narcotized rats, intracavernous injection; type: in vivo; conditions: for Increase of intracorporeal pressure, % of papaverine: in % of the increase produced by papaverine
Experimental: (§1) The influence of the experimental substances on the penile erection was evaluated using the experimental model, where changes of intracorporeal pressure was measured (Chen K K et al. J Urol, 1992;147:1124). Rats were anesthetized by sodium pentobarbital (50 mg/kg i.p. plus additionally 8 mg/kg/h i.v.). Body temperature was kept at 37-37.4° C. (rectal control) by heating lamp. Endotracheal tube was inserted to assure adequate respiration under anesthesia. Number 25 needle filled with heparinized saline was connected to pressure transducer and introduced into corpus cavernosum penis. Intracavernous pressure and II standard lead on an ECG was continuously recorded on physiograph DMP-4B (Narco Bio-Systems, USA). In some experiments arterial pressure in common carotid artery was also recorded. The effects of experimental substances were determined both at intravenous and intracavernous introduction route. For the intracorporeal injection the substances were dissolved in isotonic (0.9%) NaCl solution and the dose introduced in 0.05 ml of liquid. […] Gamma-butyrobetaine (GBB) was introduced separately and in combination with THP or phosphodiesterase inhibitor, in particular, sildenafil. Gamma-butyrobetaine (GBB) (intracavernous injection 0.02-0.1 mg per rat, usually 0.05 mg per rat; intravenously 2.0 mg/kg) and THP (intracavernous injection 0.2 mg per rat; intravenously 10.0 mg/kg) were introduced separately and as combination (GBB+THP).

[2] = subc.; cited from earlier work
[3] = system: intracavernous pressure (corpus cavernosum penis); test: intracavernous pressure in narcotized rats, intravenous injection; type: in vivo; conditions: for effect on intracorporeal pressure (in words): intravenous; for Duration of effect / Changes of intracavernous pressure / Reflectory increase of intracavernous pressure: intravenously: GBB 2.0 mg/kg, THP 10.0 mg/kg, sildenafil 3.0 mg/kg, papaverine 2.0 mg/kg
Experimental: as §1, with “Adult male rats, weighing 300-410 g were used. The influence” for “The influence”, “combination (GBB+THP). […] Since the intracavernous injection is not popular due to inconvenience to patient, intravenous route was selected for further evaluation.” for “combination (GBB+THP).”

[4] = system: copulating activity of male rats; test: rat copulating behaviour in state of physiological depression; type: in vivo, Wistar rats
Experimental: The pharmacological effects of GBB, THP and their combination on the sexual activity of mammals was investigated by a model based on rat copulating behaviour in state of physiological depression.
Experiments were conducted on adult Wistar rats of both sexes with initial body weight of 300-330 g. During the experiment, the animals were kept in standard crates in groups of 6. The feed was a standartized diet R70 (LABFOR, Lactamin AB, Sweden). The room temperature was kept at 21-23° C., relative humidity at 65±10%, 12 hour light/darkness cycle. During one week before the experiment it was established that the average water consumption by the rats was 8.2-12% (average —10%) of their body mass.
Male rats were distributed randomly into 4 groups, each of 6 animals, and supplied for 6 weeks with the following aqueous solutions:
Group 1 (Control Group)—ding water without any additives;
Group 2 (GBB Group)—drinking water was supplemented by gamma-butyrobetaine (0.015% by weight), resulting in the average daily gamma-butyrobetaine intake of 15 mg/kg;
Group 3 (THP Group)—drinking water was supplemented by THP (0.06% by weight), resulting in the average daily THP intake of 60 mg/kg;
Group 4 (GBB+THP Group)—drinking water was supplemented by THP (0.06% by weight) and gamma-butyrobetaine (0.015% by weight), resulting in the average daily […]) intake of 60 mg/kg and gamma-butyrobetaine intake of 15 mg/kg.
The copulating activity of male rats was tested four times: after one week, after four weeks, after six weeks and 48-50 hours after the discontinuation of substance intake, when all animals were receiving drinking water without additives.
The tests were conducted between 10 and 12 a.m. 6 male rats of one group were placed into a clean, well illuminated crate (box). After 5 min. adaptation period 2 female rats were placed into the box for 10 minutes. For each male rat the following data were collected:
1) copulating intensity (number of copulations during the exposition period);
3) postcoital period—the behaviour of male rats during 5 min. period after the removal of females. The postcoital behaviour was characterized by following marks: 0—the animal is passive, lays down; 1—the rat is quiet; grooming; 2—the rat is mobile, rutting; 3—the animal is active, aggressive.
The female rats used were in the estrus phase, induced by i.p. injection of 0.2 ml 0.1% estradiol dipropionate 48 h before the test.

[5] = 1 week of therapy, drinking water, GBB 15 mg/kg daily, THP 60 mg/kg daily
[6] = 1 week of therapy, drinking water, GBB 15 mg/kg daily, THP 60 mg/kg daily, 10 min exposition
[7] = 4 weeks of therapy, behaviour marks 0-3
[8] = 4 weeks of therapy, drinking water, GBB 15 mg/kg daily, THP 60 mg/kg daily
[9] = 6 weeks of therapy, behaviour marks 0-3
[10] = 6 weeks of therapy, drinking water, GBB 15 mg/kg daily, THP 60 mg/kg daily
[11] = Post-therapy (48-50 hours after discontinuation)
[12] = Post-therapy (48-50 hours after discontinuation), behaviour marks 0-3

Row | SMILES | effect on intracorporeal pressure (in words) [1] | effect on intracorporeal pressure (in words) [3] | Duration of effect [3] | delay time before attempts of mounting [4, 5] | number of copulations [4, 6] | rat post-coital agitation period [4, 7] | number of copulations [4, 8] | number of mounting attempts of male rats [4, 8] | rat post-coital agitation period [4, 9] | delay time before attempts of mounting [4, 10] | number of mounting attempts of male rats [4, 10] | delay time before attempts of mounting [4, 11] | number of copulations [4, 11] | number of mounting attempts of male rats [4, 11] | rat post-coital agitation period [4, 12] | Increase of intracorporeal pressure, % of papaverine ([1]; dose 0.2 mg per rat) | Changes of intracavernous pressure [3] | Reflectory increase of intracavernous pressure [3] | further results
1 | C[N+](C)(C)CCCC(=O)[O-] [GBB, gamma-butyrobetaine] | pronounced dose-dependent, but relatively short-termed increase; also recorded: inferior to that of papaverine | highly efficient | 2.8 ± 0.7 min | 3.7 ± 0.9 min | 0.8 ± 0.3 | 1.2 ± 0.3 | 1.3 ± 0.5 | 3.7 ± 0.7 | 1.5 ± 0.4 | 2.8 ± 0.9 min | 3.3 ± 0.6 | 2.6 ± 0.6 min | 0.7 ± 0.2 | 3.2 ± 0.5 | 1.2 ± 0.3 | – | – | – | Increase of intracorporeal pressure, % of papaverine ([1]; dose 0.02 mg per rat): 30.6%; Increase of intracorporeal pressure ([1]; dose 0.05 mg per rat): 31.5 ± 5.1 mmHg; Increase of intracorporeal pressure, % of papaverine ([1]; dose 0.05 mg per rat): 85.7%; LD50 [2]: 7000 mg/kg
2 | C[N+](C)(C)NCCC(=O)[O-] [THP, 3-(2,2,2-trimethylhydrazinium)propionate] | did not produce significant changes | little effect | 0.9 ± 0.5 min | 5.3 ± 1.0 min | 0.5 ± 0.3 | 1.4 ± 0.5 | 1.2 ± 0.4 | 3.0 ± 0.7 | 1.8 ± 0.3 | 2.3 ± 0.5 min | 3.7 ± 0.5 | 2.4 ± 0.7 min | 1.0 ± 0.3 | 3.4 ± 0.7 | 1.2 ± 0.4 | 7.3% | 1.3 ± 0.9 mm Hg | 2.7 ± 1.2 mm Hg | rat post-coital agitation period ([4]; 1 week of therapy, behaviour marks 0-3 during 5 min after removal of females): 1.0 ± 0.4; number of mounting attempts of male rats [4, 6]: 2.7 ± 0.6; delay time before attempts of mounting [4, 8]: 2.1 ± 0.5 min; number of copulations [4, 10]: 0.8 ± 0.3
3 | CCCc1nn(C)c2c(=O)[nH]c(-c3cc(S(=O)(=O)N4CCN(C)CC4)ccc3OCC)nc12 [Sildenafil, sildenafil] | – | – | 2.5 ± 1.1 min | – | – | – | – | – | – | – | – | – | – | – | – | – | – | – | Duration of effect ([1]; dose 0.15 mg per rat): 7.5 ± 2.7 min; Increase of intracorporeal pressure ([1]; dose 0.15 mg per rat): 38.5 ± 7.3 mmHg; Increase of intracorporeal pressure, % of papaverine ([1]; dose 0.15 mg per rat): 104.8%
4 | COc1ccc(Cc2nccc3cc(OC)c(OC)cc23)cc1OC [Papaverine, Papaverine hydrochloride] | – | little effect | 0.9 ± 0.9 min | – | – | – | – | – | – | – | – | – | – | – | – | 100% | 0.6 ± 0.6 mm Hg | 0.3 ± 0.3 mm Hg | Duration of effect ([1]; dose 0.2 mg per rat): 8.8 ± 1.4 min; Increase of intracorporeal pressure ([1]; dose 0.2 mg per rat): 36.75 ± 4.1 mmHg
